From PubChem BioAssay (NCI)
Values joined by “and” are separate entries in the source; they are usually repeats but may differ in a detail not shown here. Identical values can stand only once.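 Interpolation was linear, between the two tested concentrations surrounding the appropriate level; five concentrations were tested over 48 hours in 96-well plates. Here, GI50 denotes the concentration required for 50% inhibition of growth. TGI denotes the concentration required for complete inhibition of growth.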

Key:
Assay in all cases: DTP human tumour cell line panel, 48 h
[1] = test system: OVCAR-3 ovarian
[2] = test system: SNB-19 CNS
[3] = test system: CCRF-CEM leukemia
[4] = test system: HOP-92 NSCLC
[5] = test system: A549 NSCLC
[6] = test system: SN12C renal
[7] = test system: MDA-MB-435
[8] = test system: SK-MEL-2 melanoma
[9] = test system: UACC-62 melanoma
[10] = test system: MDA-MB-231 breast

Row | Structure (SMILES) | TGI [1] | TGI [2] | TGI [3] | TGI [4] | TGI [5] | TGI [6] | TGI [7] [µM] | TGI [8] | TGI [9] | GI50 [1] [µM] | GI50 [2] | GI50 [3] | GI50 [10] [µM] | TGI [10] [µM] | GI50 [6] [µM] | GI50 [7] [µM] | GI50 [8] [µM] | GI50 [9] [µM] | GI50 [5]
1 | CCOC(=O)CC1C(C(=O)OCC)=Cn2c([nH]c3cccc4cccc2c43)=C1C(=O)OCC (stereo not given) | > 100 µM | > 100 µM | > 100 µM | > 100 µM | > 100 µM | > 100 µM | > 100 | > 100 µM | > 100 µM | – | – | – | – | – | – | – | – | – | –
2 | COc1ccc(C2CC(c3cccc(Nc4ccncc4)c3)=NN2c2ccccc2)cc1 (stereo not given) | 3.52 µM | 5.79 µM | 11.6 µM | – | – | 3.23 µM | 3.49 | 5.01 µM | 3.21 µM | 1.86 | 2.2 µM | 3.44 µM | 1.62 | 3.04 | 1.72 | 1.78 | 2.39 | 1.74 | –
3 | COc1cc(COC(=O)N(C)[C@@H](Cc2ccccc2)C(=O)O)c([N+](=O)[O-])cc1OC | > 100 µM | > 100 µM | > 100 µM | > 100 µM | > 100 µM | > 100 µM | > 100 | – | > 100 µM | – | – | – | – | – | – | – | – | – | –
4 | O=C(O)C1C2OC(C(Br)C2Br)C1C(=O)O (stereo not given) | > 100 µM | > 100 µM | – | – | > 100 µM | > 100 µM | > 100 | > 100 µM | > 100 µM | – | – | – | – | > 100 | – | – | – | – | –
5 | FC(F)(Sc1ncccn1)c1nc2ccccc2o1 | > 100 µM | – | > 100 µM | > 100 µM | > 100 µM | > 100 µM | > 100 | > 100 µM | > 100 µM | – | – | – | – | > 100 | – | – | – | – | –
6 | CCCCCCCCCCCCCCCC[N+](C)(C)CCl | 14.6 µM | 3.81 µM | – | – | 22.3 µM | 12.8 µM | > 39.2 | 49.8 µM | 6.46 µM | – | – | – | – | 4.32 | – | – | – | – | –
7 | c1csc(-c2cc(-c3ccsc3)cs2)c1 | > 100 µM | – | > 100 µM | > 100 µM | > 100 µM | > 100 µM | > 100 | > 100 µM | > 100 µM | – | – | – | – | > 100 | – | – | – | – | –
8 | CC1(O)CC2C(CC1SCc1ccccc1)C2(C)C (stereo not given) | 33.6 µM and 25.2 µM | > 100 µM and 30.7 µM | > 100 µM and 42.2 µM | 66.4 µM and 14.4 µM | > 100 µM and 31.1 µM | 43 µM and 29.5 µM | – | 33.3 µM and 26.1 µM | 92.3 µM and 33.4 µM | – | 45.2 µM and 16.7 µM | 37.4 µM and 14.8 µM | – | – | – | – | – | – | 40.9 µM and 17.4 µM
9 | O=C(Nc1nnc(-c2ccccc2)o1)C(SC(=S)N1CCCC1)c1ccccc1 (stereo not given) | 74.4 µM | > 100 µM | 71.4 µM | – | > 100 µM | > 100 µM | > 100 | > 100 µM | – | – | – | – | – | > 100 | – | – | – | – | –
10 | N#CC(C#N)=C/C=C/c1ccccc1[N+](=O)[O-] | > 10 µM | > 10 µM | > 10 µM | > 10 µM | > 10 µM | > 10 µM | – | > 10 µM | 9.39 µM | – | – | – | – | 7.01 | – | – | – | – | –
11 | CC(CSc1nc2c(c(=N)n1-c1ccccc1)c(=S)n(-c1ccccc1)c(=S)n2-c1ccccc1)CN(C)C (stereo not given) | 3.09 µM | 17.8 µM | 1.49 µM | 2.97 µM | – | 3.55 µM | 3.13 | 5.29 µM | 3.15 µM | – | – | – | – | 3.46 | – | – | – | – | –
12 | O=C(CN1CCCC1)Nc1ccc2c(c1)C1Oc3ccccc3CC1CO2 (stereo not given) | > 100 µM | – | > 100 µM | > 100 µM | > 100 µM | > 100 µM | 55.4 | 50 µM | 33 µM | – | – | – | – | 75.7 | – | – | – | – | –
13 | Fc1cccc(C2ON=C(c3ccccc3)N2C23CC4CC(CC(C4)C2)C3)c1 (stereo not given) | > 10 µM | > 10 µM | – | > 10 µM | > 10 µM | > 10 µM | > 10 | > 10 µM | > 10 µM | – | – | – | – | > 10 | – | – | – | – | –
14 | CN1CCN(Cc2ccc(C(=S)Nc3ccccc3)s2)CC1 | > 100 µM | > 100 µM | > 100 µM | – | > 100 µM | – | > 100 | > 100 µM | 41.3 µM | – | – | – | – | – | – | – | – | – | –
15 | Cc1cc(C)n(C(C)(C(=O)Cc2ccccc2)n2nc(C)cc2C)n1 | > 100 µM | > 100 µM | – | > 100 µM | > 100 µM | > 100 µM | > 100 | > 100 µM | > 100 µM | – | – | – | – | > 100 | – | – | – | – | –
16 | CC(C)(C)C(=O)C(N)C(=O)C(C)(C)C | – | > 100 µM | > 100 µM | > 100 µM | > 100 µM | > 100 µM | > 100 | > 100 µM | > 100 µM | – | – | – | – | > 100 | – | – | – | – | –
17 | Cc1cc(C)c(C2=NO[C@@H]3[C@H]2C(=O)C=C2N(Cc4ccccc4)CCO[C@@]23O)c(C)c1 | > 100 µM | > 100 µM | > 100 µM | > 100 µM | > 100 µM | > 100 µM | – | > 100 µM | > 100 µM | – | – | – | – | – | – | – | – | – | –
18 | CC(C)(C)c1cc(C(C)(C)C)c2sc(=O)oc2c1O | 25.9 µM | 32.2 µM | > 100 µM | 30.8 µM | 27.6 µM | 27.1 µM | 25.6 | 29.1 µM | – | – | – | – | – | 33.4 | – | – | – | – | –
19 | Clc1ccc(-c2nn3c(COc4ccc(OCc5nnc6sc(-c7ccc(Cl)cc7)nn56)c(Cl)c4)nnc3s2)cc1 | > 100 µM | 31.7 µM | – | 37.8 µM | 90.2 µM | > 100 µM | > 100 | > 100 µM | > 100 µM | – | – | – | – | > 100 | – | – | – | – | –
20 | CN(Cc1ccccc1)C(=S)S | > 100 µM | – | 49.2 µM | > 100 µM | > 100 µM | > 100 µM | > 100 | > 100 µM | > 100 µM | – | – | – | – | > 100 | – | – | – | – | –
21 | COc1cc(-c2cc(OC)c(OC)c3ccc(Br)cc23)c2cc(Br)ccc2c1OC | 46.5 µM | > 100 µM | – | 40.3 µM | 45.2 µM | 81.6 µM | 46.1 | 56 µM | 47.7 µM | – | – | – | – | 49.5 | – | – | – | – | –
22 | Cc1cn([C@H]2CN(O)C[C@@H](CO)O2)c(=O)[nH]c1=O | – | > 100 µM | – | – | > 100 µM | > 100 µM | > 100 | > 100 µM | > 100 µM | – | – | – | – | > 100 | – | – | – | – | –
23 | CN(C)CCCNC(=O)N/N=C/c1ccccn1 | – | – | > 10 µM | > 10 µM | > 10 µM | > 10 µM | – | – | > 10 µM | – | – | – | – | > 10 | – | – | – | – | –
24 | CCn1c(-c2cc3ccccc3cc2OC(C)=O)n[nH]c1=S | 67.8 µM | – | 34.2 µM | > 100 µM | – | – | > 100 | 41.3 µM | – | – | – | – | – | 80.4 | – | – | – | – | –
